Ends that are not written are not given here.
Assays:
[1] = clinical trials (Olesen et al. 2004); cited from earlier work
[2] = system: facial blood flow; details: marmoset, electrical stimulation of the trigeminal ganglion (Doods et al. 2000); cited from earlier work
[3] = system: headache induced by CGRP infusion; details: control group (Petersen et al. 2005); cited from earlier work
[4] = system: diameter of the middle meningeal artery; details: rats, electrical stimulation of the dura mater, prior administration (Williamson et al. 1997); cited from earlier work
[5] = system: facial blood flow; details: rat, trigeminal ganglion stimulation (Escott et al. 1995); cited from earlier work
[6] = target: T1, CGRP receptors in SK-N-MC cell membranes (Homo sapiens, UniProt O60894+Q16602); assay: Native receptor binding assay (125I-CGRP, SK-N-MC cell membranes); details: 10 pM 125I-CGRP
T1 construct: receptors in SK-N-MC cell membranes; endogenous in cells; host or cells: SK-N-MC cell membranes
Method: NATIVE RECEPTOR BINDING ASSAY: The binding of ^125I-CGRP to receptors in SK-N-MC cell membranes was carried out essentially as described (Edvinsson et al. (2001) Eur. J. Pharmacal. 415, 39-44). Briefly, membranes (25 μg) were incubated in 1 mL of binding buffer [10 mM HEPES, pH 7.4, 5 mM MgCl2 and 0.2% bovine serum albumin (BSA)] containing 10 pM ^125I-CGRP and antagonist. After incubation at room temperature for 3 h, the assay was terminated by filtration through GFB glass fibre filter plates (PerkinElmer) that had been blocked with 0.5% polyethyleneimine for 3 h. The filters were washed three times with ice-cold assay buffer (10 mM HEPES, pH 7.4 and 5 mM MgCl2), then the plates were air dried. Scintillation fluid (50 μL) was added and the radioactivity was counted on a Topeount (Packard Instrument). Data analysis was carried out by using Prism and the Ki was determined by using the Cheng-Prusoff equation (Cheng & Prusoff (1973) Biochem. Pharmacol. 22, 3099-3108).

[7] = target: T2, recombinant human CL receptor/RAMP1 (Homo sapiens, UniProt O60894+Q16602); assay: Recombinant receptor functional assay (cAMP after human α-CGRP stimulation); type: cell-based; details: HEK 293 cells, 0.3 nM human α-CGRP
T2 construct: expressed in transfected cells
Method: (§1) RECOMBINANT RECEPTOR: Human CL receptor (Genbank accession number L76380) was subcloned into the expression vector pIREShyg2 (BD Biosciences Clontech) as a 5′NheI and 3′ PmeI fragment. Human RAMP I (Genbank accession number AJ001014) was subcloned into the expression vector pIRESpuro2 (BD Biosciences Clontech) as a 5′NheI and 3′NotI fragment. HEK 293 cells (human embryonic kidney cells; ATCC #CRL-1573) were cultured in DMEM with 4.5 g/L glucose, 1 mM sodium pyruvate and 2 mM glutamine supplemented with 10% fetal bovine serum (FBS), 100 units/mL penicillin and 100 μg/mL streptomycin, and maintained at 37° C. and 95% humidity. Cells were subcultured by treatment with 0.25% trypsin with 0.1% EDTA in HBSS. Stable cell line generation was accomplished by co-transfecting 10 μg of DNA with 30 μg Lipofectamine 2000 (Invitrogen) in 75 cm^2 flasks. CL receptor and RAMP I expression constructs were co-transfected in equal amounts. […]
RECOMBINANT RECEPTOR FUNCTIONAL ASSAY: Cells were plated in complete growth medium at 85,000 cells/well in 96-well poly-D-lysine coated plates (Corning) and cultured for ˜19 h before assay. […] Dose response curves were plotted and IC50 values determined from a 4-parameter logistic fit as defined by the equation y=((a−d)/(1+(x/c)^b)+d, where y=response, x=dose, a=max response, d=min response, c=inflection point and b=slope.

[8] = target: T2, recombinant human CL receptor/RAMP1; assay: Recombinant receptor binding assay (125I-hCGRP); details: recombinant human CL receptor/RAMP1 membranes, 10 pM 125I-hCGRP
Method: as §1, with “amounts. Twenty-four hours after transfection the cells were diluted and selective medium (growth medium+300 μg/mL hygromycin and 1 μg/mL puromycin) was added the following day. A clonal cell line was generated by single cell deposition utilizing a FACS Vantage SE (Becton Dickinson). Growth medium was adjusted to 150 μg/mL hygromycin and 0.5 μg/mL puromycin for cell propagation.” for “amounts.”

T2 sequence (Q16602 23-461): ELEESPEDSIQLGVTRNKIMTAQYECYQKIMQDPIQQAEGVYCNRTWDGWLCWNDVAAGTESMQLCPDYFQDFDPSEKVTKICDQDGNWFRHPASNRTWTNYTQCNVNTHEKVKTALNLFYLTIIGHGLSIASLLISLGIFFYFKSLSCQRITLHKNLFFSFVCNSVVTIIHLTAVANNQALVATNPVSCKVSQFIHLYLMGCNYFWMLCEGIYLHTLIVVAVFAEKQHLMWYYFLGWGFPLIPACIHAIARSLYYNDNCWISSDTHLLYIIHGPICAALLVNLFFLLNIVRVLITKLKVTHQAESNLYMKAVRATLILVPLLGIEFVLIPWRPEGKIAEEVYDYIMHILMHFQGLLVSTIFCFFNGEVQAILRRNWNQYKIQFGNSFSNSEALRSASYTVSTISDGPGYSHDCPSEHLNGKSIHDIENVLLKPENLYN
T2 sequence (O60894 27-148): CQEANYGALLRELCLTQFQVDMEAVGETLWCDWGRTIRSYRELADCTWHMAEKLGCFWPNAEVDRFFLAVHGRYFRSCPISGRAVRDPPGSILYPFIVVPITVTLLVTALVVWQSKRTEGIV
T1 sequence (Q16602 23-461): as the sequence (Q16602 23-461) above
T1 sequence (O60894 27-148): as the sequence (O60894 27-148) above

NCCCC[C@H](NC(=O)[C@@H](Cc1cc(Br)c(O)c(Br)c1)NC(=O)N1CCC(N2Cc3ccccc3NC2=O)CC1)C(=O)N1CCN(c2ccncc2)CC1 [BIBN4096BS]
treating acute attacks of migraine [1]: effective
effect on increase in facial blood flow [2]: could be blocked
prevention of headache induced by CGRP infusion [3]: able to prevent headache

CGRP(8-37): a peptide CGRP antagonist; fragment of CGRP that lacks seven N-terminal amino acid residues (VTHRLAGLLSRSGGVVKNNFVPTNVGSKAF; ends and bridges not checked; UniProt P06881 90-119, looked up, fragment)
effect on increased diameter of the middle meningeal artery [4]: blocked
effect on increased facial blood flow [5]: inhibited

CC(C)(O)c1cnc2n1Cc1c(cc(Cl)c3[nH]ncc13)C[C@H]2NC(=O)c1ccc2c(c1)CC1(C2)C(=O)Nc2ncccc21 (stereo partly drawn) [Example 4, N-[(7R)-4-chloro-10-(1-hydroxy-1-methylethyl)-3,6,7,12-tetrahydroimidazo[1′,2′:1,7]azepino[3,4-e]indazol-7-yl]-2′-oxo-1,1′,2′,3-tetrahydrospiro[indene-2,3′-pyrrolo[2,3-b]pyridine]-5-carboxamide]
Ki [6]: < 1000 nM
IC50 [7]: < 1000 nM
Ki [8]: < 1000 nM
